Experimental data published in patent US20260193244A1 (Protego Biopharma, Inc., priority 2022, published 2026).
Where a name gives a salt, the structure may show the parent alone.

Tested on: IRE1-XBP1s (HEK293 T-REx cells stably expressing the XBP1-RLuc splicing reporter)
Assay: IRE1-XBP1s activation Assay (XBP1-RLuc splicing reporter, luminescence relative to thapsigargin, with or without IRE1 inhibitor 4μ8C)
Assay type: cell-based
Settings: 18 h, compound 10 μM, luminescence as percentage signal relative to thapsigargin (Tg) (500 nM, 18 h)
Experimental: IRE1-XBP1s activation Assay: HEK293 T-REx cells stably expressing the XBP1-RLuc splicing reporter were treated with an IRE1-XBP1s activator provided herein (10 μM) in the presence or absence of the IRE1 active site inhibitor 4μ8C (32 μM) for 18 h. Luminescence was shown as the percentage signal relative to thapsigargin (Tg) (500 nM, 18 h).

SMILES: Cc1ccc(OCCN(C)C(=O)Cn2cc(NC(=O)C3CNc4ncccc4O3)cn2)cc1 (stereo not drawn) [Compound 90, N-(1-(2-(methyl(2-(p-tolyloxy)ethyl)amino)-2-oxoethyl)-1H-pyrazol-4-yl)-3,4-dihydro-2H-pyrido[3,2-b][1,4]oxazine-2-carboxamide hydrochloride]
- activation at 10 µM: 30 to 50%

SMILES: Cc1c(F)cc(O[C@H]2CCCN(C(=O)Cn3cc(NC(=O)CCNc4ccnc(F)n4)cn3)C2)cc1F [Compound 180]
- activation at 10 µM: ≥ 50%

SMILES: Cc1ccc(O[C@H]2CCCN(C(=O)Cn3cc(NC(=O)CCNc4c(F)cncc4Cl)cn3)C2)cc1 [Compound 183]
- activation at 10 µM: ≥ 50%

SMILES: Cc1ccc(OC2CCCN(C(=O)Cn3cc(NC(=O)CCOc4c(F)cccc4F)cn3)C2)cc1 (stereo not drawn) [Compound 86]
- activation at 10 µM: 30 to 50%

SMILES: Cc1ccc(OC2(C)CCCN(C(=O)Cn3cc(NC(=O)CCOc4ccccc4F)cn3)C2)cc1 (stereo not drawn) [Compound 77]
- activation at 10 µM: 30 to 50%

SMILES: Cc1ccc(OCCN(C)C(=O)Cn2cc(N(C)C(=O)[C@@H]3CCCN(C(=O)c4ccccc4)C3)cn2)cc1 [Compound 15]
- activation at 10 µM: < 30%

SMILES: Cc1ccc(OC2CCCCN(C(=O)Cn3cc(NC(=O)CCOc4ccccc4)cn3)C2)cc1 (stereo not drawn) [Compound 117]
- activation at 10 µM: ≥ 50%

SMILES: COc1ccc2c(c1)CC(C(=O)Nc1cnn(CC(=O)N(C)CCOc3ccc(C)cc3)c1)CO2 (stereo not drawn) [Compound 63]
- activation at 10 µM: < 30%

SMILES: Cc1ccc(O[C@H]2CCCN(C(=O)Cn3cc(NC(=O)C4COc5ccccc5N4)cn3)C2)cc1 (stereo partly drawn) [Compound 155]
- activation at 10 µM: < 30%

SMILES: Cc1ccc(OC2CCCN(C(=O)Cn3cc(NC(=O)CCOc4ccccc4C(F)(F)F)cn3)C2)cc1 (stereo not drawn) [Compound 83]
- activation at 10 µM: < 30%

SMILES: Cc1ccc(OCCN(C)C(=O)Cn2cc(NC(=O)CC3CNc4cc(F)ccc4O3)cn2)cc1 (stereo not drawn) [Compound 96, 2-(4-(2-(6-fluoro-3,4-dihydro-2H-benzo[b][1,4]oxazin-2-yl)acetamido)-1H-pyrazol-1-yl)-N-methyl-N-(2-(p-tolyloxy)ethyl)acetamide]
- activation at 10 µM: 30 to 50%

SMILES: Cc1ccc(OC2CCCN(C(=O)Cn3cc(NC(=O)CCOc4ccc(Cl)cc4)cn3)C2)cc1 (stereo not drawn) [Compound 38]
- activation at 10 µM: 30 to 50%

SMILES: Cc1ccc(O[C@@H]2CCCN(C(=O)Cn3cc(NC(=O)CCNc4ccnc(F)n4)cn3)C2)cc1 [Compound 176]
- activation at 10 µM: 30 to 50%

SMILES: Cc1ccc(OCCN(C)C(=O)Cn2cc(NC(=O)COC3CCCN(c4nccc(F)n4)C3)cn2)cc1 (stereo not drawn) [Compound 132]
- activation at 10 µM: < 30%

SMILES: Cc1ccc(OCCN(C)C(=O)Cn2cc(N(C)C(=O)[C@@H]3CCCC[C@@H]3c3ccccc3)cn2)cc1 [Compound 19]
- activation at 10 µM: < 30%

SMILES: Cc1ccc(Oc2ccccc2N(C)C(=O)Cn2cc(NC(=O)CCOc3ccccc3)cn2)cc1 [Compound 57]
- activation at 10 µM: < 30%

SMILES: Cc1ccc(O[C@H]2CCCN(C(=O)Cn3cc(NC(=O)[C@@H]4CNc5ccccc5O4)cn3)C2)cc1 [Compound 123]
- activation at 10 µM: < 30%

SMILES: Cc1ccc(OCCN(C)C(=O)Cn2cc(NC(=O)C3COc4ccccc4C3)cn2)cc1 (stereo not drawn) [Compound 60]
- activation at 10 µM: < 30%

SMILES: Cc1ccc(OCCN(C)C(=O)Cn2cc(NC(=O)OC3CCCNC3)cn2)cc1 (stereo not drawn) [Compound 206]
- activation at 10 µM: < 30%

SMILES: Cc1ccc(OCCN(C)C(=O)Cn2cc(N(C)C(=O)C3CCC(Oc4ccccc4)CC3)cn2)cc1 (stereo not drawn) [Compound 17]
- activation at 10 µM: < 30%

SMILES: COc1ccccc1OCCC(=O)Nc1cnn(CC(=O)N2CCCCC(Oc3ccccc3)C2)c1 (stereo not drawn) [Compound 51]
- activation at 10 µM: < 30%

SMILES: Cc1ccc(OC2CCC3(C2)CN(C(=O)Cn2cc(NC(=O)CCNc4ccnc(F)n4)cn2)C3)cc1 (stereo not drawn) [Compound 175]
- activation at 10 µM: < 30%

SMILES: Cc1ccc(OCCN(C)C(=O)Cn2cc(NC(=O)C3CN(C(=O)OC(C)(C)C)c4ccccc4O3)cn2)cc1 (stereo not drawn) [Compound 73]
- activation at 10 µM: < 30%

SMILES: Cc1ccc(O[C@H]2CCCN(C(=O)Cn3cc(NC(=O)CCNc4ccnc(F)n4)cn3)C2)cc1 [Compound 178]
- activation at 10 µM: ≥ 50%

SMILES: O=C(CCOc1ccccc1)Nc1cnn(CC(=O)N2CCCN(c3ccc(F)cn3)CC2)c1 [Compound 33]
- activation at 10 µM: < 30%

SMILES: CC(C)c1cncc(F)c1OCCC(=O)Nc1cnn(CC(=O)N2CCC[C@H](Oc3ccc(C(F)(F)F)cn3)C2)c1 [Compound 161]
- activation at 10 µM: ≥ 50%

SMILES: Cc1ccc(OCCN(C)C(=O)Cn2cc(NC(=O)[C@H]3CCc4ccccc4O3)cn2)cc1 [Compound 202]
- activation at 10 µM: 30 to 50%

SMILES: Cc1ccc(OC2CCCN(C(=O)Cn3cc(NC(=O)CCC4(c5ccccc5F)CC4)cn3)C2)cc1 (stereo not drawn) [Compound 100, 3-(1-(2-fluorophenyl)cyclopropyl)-N-(1-(2-oxo-2-(3-(p-tolyloxy)piperidin-1-yl)ethyl)-1H-pyrazol-4-yl)propanamide]
- activation at 10 µM: < 30%

SMILES: [2H]C([2H])([2H])c1ccc(OCCN(C)C(=O)Cn2cc(NC(=O)C3CNc4ccccc4O3)cn2)cc1 (stereo not drawn) [Compound 201]
- activation at 10 µM: ≥ 50%

SMILES: Cc1ccc(OCCN(C)C(=O)Cn2cc(NC(=O)C3CC(Nc4ncc(F)cn4)C3)cn2)cc1 (stereo not drawn) [Compound 170]
- activation at 10 µM: < 30%

SMILES: Cc1ccc(OCCN(C)C(=O)Cn2cc(NC(=O)C3CN(c4ccccc4)C3)cn2)cc1 [Compound 138]
- activation at 10 µM: < 30%

SMILES: Cc1ccc(O[C@H]2CCCN(C(=O)Cn3cc(NC(=O)COc4ccccn4)cn3)C2)cc1 [Compound 150]
- activation at 10 µM: < 30%

SMILES: Cc1ccc(OCCN(C)C(=O)Cn2cc(NC(=O)C3COc4cccc(C)c4O3)cn2)cc1 (stereo not drawn) [Compound 125]
- activation at 10 µM: 30 to 50%

SMILES: Cc1ccc(OCCN(C)C(=O)Cn2cc(NC(=O)[C@@H]3CCC[C@H](Oc4ccccc4)C3)cn2)cc1 [Compound 12]
- activation at 10 µM: < 30%

SMILES: Cc1ccc(O[C@@H]2CCCN(C(=O)Cn3cc(NC(=O)CCOc4ccc(F)cc4C)cn3)C2)cc1 [Compound 93]
- activation at 10 µM: ≥ 50%

SMILES: O=C(CCOc1ccccc1)Nc1cnn(CC(=O)N2CCCN(Cc3ccncc3)CC2)c1 [Compound 52, N-(1-(2-oxo-2-(4-(pyridin-4-ylmethyl)-1,4-diazepan-1-yl)ethyl)-1H-pyrazol-4-yl)-3-phenoxypropanamide]
- activation at 10 µM: < 30%

SMILES: Cc1ccc(O[C@H]2CCCN(C(=O)Cn3cc(NC(=O)C4COc5ccccc5O4)cn3)C2)cc1 (stereo partly drawn) [Compound 147]
- activation at 10 µM: < 30%

SMILES: Cc1ccc(OC2CCCN(C(=O)Cn3cc(NC(=O)CCOc4cc(Cl)ccc4F)cn3)C2)cc1 (stereo not drawn) [Compound 80]
- activation at 10 µM: ≥ 50%

SMILES: Cc1ccc(O[C@@H]2CCCN(C(=O)Cn3cc(NC(=O)CCNc4c(F)cncc4Cl)cn3)C2)cc1 [Compound 184]
- activation at 10 µM: ≥ 50%

SMILES: COc1ccccc1OCCC(=O)Nc1cnn(CC(=O)N2CCCC(Oc3ccc(C)cc3)C2)c1 (stereo not drawn) [Compound 40]
- activation at 10 µM: 30 to 50%

SMILES: Cc1ccc(OC2CCN(C(=O)Cn3cc(NC(=O)CCOc4ccccc4)cn3)CC2)cc1 [Compound 9]
- activation at 10 µM: < 30%

SMILES: Cc1ccc(OCCN(C)C(=O)Cn2cc(NC(=O)C3CCC3Nc3ccnc(F)n3)cn2)cc1 (stereo not drawn) [Compound 167]
- activation at 10 µM: 30 to 50%

SMILES: Cc1cccc(OCCC(=O)Nc2cnn(CC(=O)N(C)c3ccc(Oc4ccccc4)cc3)c2)c1 [Compound 35]
- activation at 10 µM: < 30%

SMILES: Cc1ccc(OCCN(C)C(=O)Cn2cc(NC(=O)[C@H]3C[C@@H](c4ccccc4)C3)cn2)cc1 [Compound 6]
- activation at 10 µM: ≥ 50%

SMILES: Cc1ccc(O[C@H]2CCCN(C(=O)Cn3cc(NC(=O)C4CC(Oc5ccccn5)C4)cn3)C2)cc1 (stereo partly drawn) [Compound 105]
- activation at 10 µM: 30 to 50%

SMILES: Cc1ccccc1OCCC(=O)Nc1cnn(CC(=O)N(C)c2ccccc2Oc2ccccc2)c1 [Compound 44]
- activation at 10 µM: < 30%

SMILES: Cc1ccc(OCCN(C)C(=O)Cn2cc(NC(=O)C3CC(Oc4cccc(C)n4)C3)cn2)cc1 (stereo not drawn) [Compound 142]
- activation at 10 µM: < 30%

SMILES: Cc1ccc(OCCN(C)C(=O)Cn2cc(N(C)C(=O)C3CN(Cc4ccccc4)CCO3)cn2)cc1 (stereo not drawn) [Compound 14]
- activation at 10 µM: < 30%

SMILES: Cc1ccccc1OCCC(=O)Nc1cnn(CC(=O)N(C)c2ccc(Oc3ccc(C(F)(F)F)cc3)cc2)c1 [Compound 53]
- activation at 10 µM: < 30%

SMILES: Cc1ccc(OCCN(C)C(=O)Cn2cc(NC(=O)OC3CCCN(c4nccc(F)n4)C3)cn2)cc1 (stereo not drawn) [Compound 131, 1-(4-fluoropyrimidin-2-yl)piperidin-3-yl (1-(2-(methyl (2-(p-tolyloxy)ethyl)-amino)-2-oxoethyl)-1H-pyrazol-4-yl)carbamate]
- activation at 10 µM: < 30%

SMILES: Cc1ccc(OCCN(C)C(=O)Cn2cc(NC(=O)C3CNCC3Nc3ccnc(O)n3)cn2)cc1 (stereo not drawn) [Compound 133]
- activation at 10 µM: < 30%

SMILES: Cc1ccc(OCCN(C)C(=O)Cn2cc(NC(=O)c3nc4ccccc4o3)cn2)cc1 [Compound 153]
- activation at 10 µM: 30 to 50%

SMILES: O=C(CCOc1ccccc1)Nc1cnn(CC(=O)Nc2ccc(OC(F)F)cc2)c1 [Compound 114]
- activation at 10 µM: 30 to 50%

SMILES: Cc1ccc(OC2CCCN(C(=O)Cn3cc(NC(=O)CCNc4ccnc(F)n4)cn3)CC2)cc1 (stereo not drawn) [Compound 172]
- activation at 10 µM: < 30%

SMILES: Cc1ccc(O[C@H]2CCCN(C(=O)Cn3cc(NC(=O)C4CC(Oc5cccnc5N)C4)cn3)C2)cc1 (stereo partly drawn) [Compound 107]
- activation at 10 µM: 30 to 50%

SMILES: Cc1ccc(OC2CCCN(C(=O)Cn3cc(NC(=O)CCOc4ccc(F)cc4C)cn3)C2)cc1 (stereo not drawn) [Compound 98]
- activation at 10 µM: ≥ 50%

SMILES: Cc1ccc(OC2CCCC23CN(C(=O)Cn2cc(NC(=O)C4CNc5ccccc5O4)cn2)C3)cc1 (stereo not drawn) [Compound 198, N-(1-(2-oxo-2-(5-(p-tolyloxy)-2-azaspiro[3.4]octan-2-yl)ethyl)-1H-pyrazol-4-yl)-3,4-dihydro-2H-benzo[b][1, 4]oxazine-2-carboxamide]
- activation at 10 µM: < 30%

SMILES: Cc1ccc(O[C@H]2CCCN(C(=O)Cn3cc(NC(=O)CCOc4ccccc4F)cn3)C2)cc1 [Compound 71]
- activation at 10 µM: ≥ 50%

SMILES: Cc1ccc(Oc2c(F)cc(N(C)C(=O)Cn3cc(NC(=O)CCOc4ccccc4)cn3)cc2F)cc1 [Compound 55]
- activation at 10 µM: < 30%

SMILES: Cc1ccc(C2=CC(C)(C)Oc3cc(N(C)C(=O)Cn4cc(NC(=O)CCOc5ccccc5)cn4)ccc32)cc1 [Compound 59, N-(1-(2-((2,2-dimethyl-4-(p-tolyl)-2H-chromen-7-yl)(methyl)amino)-2-oxoethyl)-1H-pyrazol-4-yl)-3-phenoxypropanamide]
- activation at 10 µM: < 30%
